Measurements as given in article PMC10176470, “Engaging a Non-catalytic Cysteine Residue Drives Potent and Selective Inhibition of Caspase-6” (Journal of the American Chemical Society, 2023).

Legend:
Assay type in all cases: cell-based
[1] = biological target: proteins of HEK293T cells transiently overexpressing caspase-6 (Homo sapiens, UniProt Q04637); details: protein EIF4G1 (Q04637)
[2] = biological target: proteins of HEK293T cells transiently overexpressing caspase-6 (Homo sapiens, UniProt P35527); details: Probe; protein KRT9 P35527
Chain of proteins of HEK293T cells transiently overexpressing caspase-6 (Homo sapiens, UniProt P35527) (P35527 whole entry): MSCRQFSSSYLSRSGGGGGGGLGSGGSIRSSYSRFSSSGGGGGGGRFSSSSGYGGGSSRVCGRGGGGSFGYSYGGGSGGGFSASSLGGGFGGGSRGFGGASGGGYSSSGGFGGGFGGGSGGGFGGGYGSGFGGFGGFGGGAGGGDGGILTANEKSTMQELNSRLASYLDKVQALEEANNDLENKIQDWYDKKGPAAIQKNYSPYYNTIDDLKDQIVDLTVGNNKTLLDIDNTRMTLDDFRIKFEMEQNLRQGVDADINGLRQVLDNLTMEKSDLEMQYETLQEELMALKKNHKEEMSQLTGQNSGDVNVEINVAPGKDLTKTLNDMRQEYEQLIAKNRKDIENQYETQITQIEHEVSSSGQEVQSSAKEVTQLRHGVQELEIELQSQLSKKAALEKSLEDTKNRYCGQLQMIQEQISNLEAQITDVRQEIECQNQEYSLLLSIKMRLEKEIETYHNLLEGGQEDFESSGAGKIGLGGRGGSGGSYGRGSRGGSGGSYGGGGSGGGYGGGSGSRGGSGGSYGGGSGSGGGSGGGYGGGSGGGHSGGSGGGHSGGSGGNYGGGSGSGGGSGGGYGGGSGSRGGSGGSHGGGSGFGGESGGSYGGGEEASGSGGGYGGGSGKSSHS

[3] = biological target: T1, proteins of HEK293T cells transiently overexpressing caspase-6 (Homo sapiens, UniProt Q99832); details: protein CCT7 (Q99832)
T1 sequence (Q99832 1-543): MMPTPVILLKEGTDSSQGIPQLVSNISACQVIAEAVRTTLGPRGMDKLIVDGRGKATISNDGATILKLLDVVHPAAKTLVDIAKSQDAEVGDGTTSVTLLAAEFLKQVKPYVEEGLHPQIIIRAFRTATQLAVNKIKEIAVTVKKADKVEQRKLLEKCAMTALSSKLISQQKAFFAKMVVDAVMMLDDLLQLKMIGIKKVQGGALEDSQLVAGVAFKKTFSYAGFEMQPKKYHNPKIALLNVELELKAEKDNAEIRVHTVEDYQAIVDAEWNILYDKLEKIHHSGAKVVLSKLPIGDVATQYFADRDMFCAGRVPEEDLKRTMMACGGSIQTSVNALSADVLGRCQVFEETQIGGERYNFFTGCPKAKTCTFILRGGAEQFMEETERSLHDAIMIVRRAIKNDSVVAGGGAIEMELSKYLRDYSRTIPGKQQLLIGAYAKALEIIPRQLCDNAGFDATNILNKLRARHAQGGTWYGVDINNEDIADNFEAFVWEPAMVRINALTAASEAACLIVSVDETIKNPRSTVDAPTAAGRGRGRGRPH

[4] = biological target: proteins of HEK293T cells transiently overexpressing caspase-6 (Homo sapiens, UniProt Q14444); details: exp_ref Probe; protein CAPRIN1 (Q14444); analysis C6
Chain of proteins of HEK293T cells transiently overexpressing caspase-6 (Homo sapiens, UniProt Q14444) (Q14444 whole entry): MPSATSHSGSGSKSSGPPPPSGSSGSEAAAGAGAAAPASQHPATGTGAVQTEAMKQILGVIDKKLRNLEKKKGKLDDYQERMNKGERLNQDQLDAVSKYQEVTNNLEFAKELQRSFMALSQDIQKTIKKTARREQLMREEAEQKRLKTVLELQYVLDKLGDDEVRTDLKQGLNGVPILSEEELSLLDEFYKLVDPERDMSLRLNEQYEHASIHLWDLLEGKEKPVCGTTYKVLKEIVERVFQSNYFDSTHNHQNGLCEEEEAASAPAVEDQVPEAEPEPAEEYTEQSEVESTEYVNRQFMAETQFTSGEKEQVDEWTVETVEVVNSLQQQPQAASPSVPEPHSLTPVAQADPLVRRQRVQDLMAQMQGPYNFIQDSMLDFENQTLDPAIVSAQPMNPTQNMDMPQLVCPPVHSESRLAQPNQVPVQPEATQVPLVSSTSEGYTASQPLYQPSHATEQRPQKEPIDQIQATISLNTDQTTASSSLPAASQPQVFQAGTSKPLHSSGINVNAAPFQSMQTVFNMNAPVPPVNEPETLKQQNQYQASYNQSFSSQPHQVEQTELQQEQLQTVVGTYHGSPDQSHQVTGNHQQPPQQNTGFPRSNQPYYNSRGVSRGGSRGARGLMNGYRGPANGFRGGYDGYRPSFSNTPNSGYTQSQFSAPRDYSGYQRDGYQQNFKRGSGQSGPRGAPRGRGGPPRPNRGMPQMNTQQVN

[5] = biological target: proteins of HEK293T cells transiently overexpressing caspase-6 (Homo sapiens, UniProt P14314); details: Probe; protein PRKCSH P14314
[6] = biological target: proteins of HEK293T cells transiently overexpressing caspase-6 (Homo sapiens, UniProt P25788); details: Probe; protein PSMA3 P25788
Chain of proteins of HEK293T cells transiently overexpressing caspase-6 (Homo sapiens, UniProt P25788) (P25788 whole entry): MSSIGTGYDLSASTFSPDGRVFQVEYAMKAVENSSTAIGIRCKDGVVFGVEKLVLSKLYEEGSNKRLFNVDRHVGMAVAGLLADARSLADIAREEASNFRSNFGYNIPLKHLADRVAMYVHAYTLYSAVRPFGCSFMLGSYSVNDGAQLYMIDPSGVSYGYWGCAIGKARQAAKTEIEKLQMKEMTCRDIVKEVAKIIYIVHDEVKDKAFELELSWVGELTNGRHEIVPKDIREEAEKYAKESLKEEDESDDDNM

[7] = biological target: proteins of HEK293T cells transiently overexpressing caspase-6 (Homo sapiens, UniProt P23246); details: exp_ref Probe; protein SFPQ (P23246); analysis C6
[8] = biological target: proteins of HEK293T cells transiently overexpressing caspase-6 (Homo sapiens, UniProt Q9Y5B9); details: Probe; protein SUPT16H Q9Y5B9
[9] = biological target: proteins of HEK293T cells transiently overexpressing caspase-6 (Homo sapiens, UniProt O94919); details: exp_ref Probe; protein ENDOD1 (O94919); analysis C6
[10] = biological target: proteins of HEK293T cells transiently overexpressing caspase-6 (Homo sapiens, UniProt P33992); details: exp_ref Probe; protein MCM5 (P33992); analysis C6
[11] = biological target: proteins of HEK293T cells transiently overexpressing caspase-6 (Homo sapiens, UniProt P60842); details: exp_ref Probe; protein EIF4A1 (P60842); analysis C6
[12] = biological target: proteins of HEK293T cells transiently overexpressing caspase-6 (Homo sapiens, UniProt O15355); details: exp_ref Probe; protein PPM1G (O15355); analysis C6
Chain of proteins of HEK293T cells transiently overexpressing caspase-6 (Homo sapiens, UniProt O15355) (O15355 whole entry): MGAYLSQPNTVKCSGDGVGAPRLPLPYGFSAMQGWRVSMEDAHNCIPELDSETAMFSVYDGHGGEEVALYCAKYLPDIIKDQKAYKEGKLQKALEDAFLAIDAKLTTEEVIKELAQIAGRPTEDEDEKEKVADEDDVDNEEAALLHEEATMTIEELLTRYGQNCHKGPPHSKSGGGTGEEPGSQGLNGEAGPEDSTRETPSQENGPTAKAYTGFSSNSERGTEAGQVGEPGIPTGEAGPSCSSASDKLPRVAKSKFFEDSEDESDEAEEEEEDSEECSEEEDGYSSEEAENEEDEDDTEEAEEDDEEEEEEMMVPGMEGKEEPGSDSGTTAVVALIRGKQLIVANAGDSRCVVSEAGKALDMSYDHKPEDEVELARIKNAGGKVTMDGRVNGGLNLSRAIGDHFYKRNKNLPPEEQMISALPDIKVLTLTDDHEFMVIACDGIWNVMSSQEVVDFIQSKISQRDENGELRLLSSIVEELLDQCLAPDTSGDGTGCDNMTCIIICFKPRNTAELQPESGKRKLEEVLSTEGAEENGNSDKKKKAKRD

[13] = biological target: proteins of HEK293T cells transiently overexpressing caspase-6 (Homo sapiens, UniProt P13010); details: protein XRCC5 (P13010)
Chain of proteins of HEK293T cells transiently overexpressing caspase-6 (Homo sapiens, UniProt P13010) (P13010 whole entry): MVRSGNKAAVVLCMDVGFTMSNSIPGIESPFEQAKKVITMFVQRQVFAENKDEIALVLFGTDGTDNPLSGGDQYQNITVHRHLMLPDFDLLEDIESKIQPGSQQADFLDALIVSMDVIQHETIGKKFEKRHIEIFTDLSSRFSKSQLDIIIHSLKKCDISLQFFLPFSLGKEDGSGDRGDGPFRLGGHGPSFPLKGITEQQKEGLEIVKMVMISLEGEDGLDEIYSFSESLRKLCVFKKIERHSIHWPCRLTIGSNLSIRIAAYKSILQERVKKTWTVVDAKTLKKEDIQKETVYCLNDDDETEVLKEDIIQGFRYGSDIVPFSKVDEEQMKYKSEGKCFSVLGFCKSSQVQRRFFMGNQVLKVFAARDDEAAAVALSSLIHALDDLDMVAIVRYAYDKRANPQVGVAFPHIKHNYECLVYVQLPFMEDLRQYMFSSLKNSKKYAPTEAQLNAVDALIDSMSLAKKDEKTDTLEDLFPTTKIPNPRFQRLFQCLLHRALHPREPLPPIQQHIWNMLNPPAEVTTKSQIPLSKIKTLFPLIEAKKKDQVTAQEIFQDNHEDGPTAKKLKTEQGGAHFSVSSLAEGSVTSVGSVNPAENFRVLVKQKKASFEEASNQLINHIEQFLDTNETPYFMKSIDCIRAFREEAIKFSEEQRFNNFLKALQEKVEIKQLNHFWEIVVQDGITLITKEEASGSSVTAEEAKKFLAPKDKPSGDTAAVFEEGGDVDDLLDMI

[14] = biological target: proteins of HEK293T cells transiently overexpressing caspase-6 (Homo sapiens, UniProt P04843); details: exp_ref Probe; protein RPN1 (P04843); analysis C6
Chain of proteins of HEK293T cells transiently overexpressing caspase-6 (Homo sapiens, UniProt P04843) (P04843 24-607): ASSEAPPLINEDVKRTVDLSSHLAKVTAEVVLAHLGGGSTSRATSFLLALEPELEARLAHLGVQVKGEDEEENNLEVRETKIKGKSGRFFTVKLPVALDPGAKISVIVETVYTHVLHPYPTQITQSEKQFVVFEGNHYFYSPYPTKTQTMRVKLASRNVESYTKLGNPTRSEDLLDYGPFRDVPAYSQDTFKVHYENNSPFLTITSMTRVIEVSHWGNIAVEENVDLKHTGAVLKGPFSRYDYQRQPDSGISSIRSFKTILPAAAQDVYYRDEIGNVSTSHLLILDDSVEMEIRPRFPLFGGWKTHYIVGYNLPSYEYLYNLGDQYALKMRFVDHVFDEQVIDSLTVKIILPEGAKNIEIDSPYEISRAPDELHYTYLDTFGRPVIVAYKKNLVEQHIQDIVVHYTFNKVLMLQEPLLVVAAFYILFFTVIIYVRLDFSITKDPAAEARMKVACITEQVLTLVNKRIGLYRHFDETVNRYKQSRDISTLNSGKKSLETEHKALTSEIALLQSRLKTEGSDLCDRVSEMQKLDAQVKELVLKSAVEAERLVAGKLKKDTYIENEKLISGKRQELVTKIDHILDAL

[15] = biological target: T2, proteins of HEK293T cells transiently overexpressing caspase-6 (Homo sapiens, UniProt Q96RQ3)
T2 sequence (Q96RQ3 42-725): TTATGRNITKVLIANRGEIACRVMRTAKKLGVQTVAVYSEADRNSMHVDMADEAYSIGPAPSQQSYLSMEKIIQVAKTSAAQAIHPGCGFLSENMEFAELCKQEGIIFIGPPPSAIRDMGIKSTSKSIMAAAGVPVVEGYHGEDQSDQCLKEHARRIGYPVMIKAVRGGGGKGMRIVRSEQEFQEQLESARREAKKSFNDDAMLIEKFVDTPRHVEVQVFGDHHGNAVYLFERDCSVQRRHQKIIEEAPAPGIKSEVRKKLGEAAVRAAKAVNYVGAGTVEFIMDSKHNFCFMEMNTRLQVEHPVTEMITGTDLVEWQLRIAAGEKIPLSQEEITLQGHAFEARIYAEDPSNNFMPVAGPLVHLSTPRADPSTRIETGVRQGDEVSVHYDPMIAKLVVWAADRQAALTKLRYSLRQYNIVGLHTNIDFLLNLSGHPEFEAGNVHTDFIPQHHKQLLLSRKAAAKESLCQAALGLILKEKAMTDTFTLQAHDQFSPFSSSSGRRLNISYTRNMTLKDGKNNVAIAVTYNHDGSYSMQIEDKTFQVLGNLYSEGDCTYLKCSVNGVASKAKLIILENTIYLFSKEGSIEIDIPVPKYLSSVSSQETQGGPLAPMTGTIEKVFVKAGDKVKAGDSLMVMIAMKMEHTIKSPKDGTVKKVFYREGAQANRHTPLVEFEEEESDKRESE

Chain of proteins of HEK293T cells transiently overexpressing caspase-6 (Homo sapiens, UniProt Q04637) (Q04637 whole entry): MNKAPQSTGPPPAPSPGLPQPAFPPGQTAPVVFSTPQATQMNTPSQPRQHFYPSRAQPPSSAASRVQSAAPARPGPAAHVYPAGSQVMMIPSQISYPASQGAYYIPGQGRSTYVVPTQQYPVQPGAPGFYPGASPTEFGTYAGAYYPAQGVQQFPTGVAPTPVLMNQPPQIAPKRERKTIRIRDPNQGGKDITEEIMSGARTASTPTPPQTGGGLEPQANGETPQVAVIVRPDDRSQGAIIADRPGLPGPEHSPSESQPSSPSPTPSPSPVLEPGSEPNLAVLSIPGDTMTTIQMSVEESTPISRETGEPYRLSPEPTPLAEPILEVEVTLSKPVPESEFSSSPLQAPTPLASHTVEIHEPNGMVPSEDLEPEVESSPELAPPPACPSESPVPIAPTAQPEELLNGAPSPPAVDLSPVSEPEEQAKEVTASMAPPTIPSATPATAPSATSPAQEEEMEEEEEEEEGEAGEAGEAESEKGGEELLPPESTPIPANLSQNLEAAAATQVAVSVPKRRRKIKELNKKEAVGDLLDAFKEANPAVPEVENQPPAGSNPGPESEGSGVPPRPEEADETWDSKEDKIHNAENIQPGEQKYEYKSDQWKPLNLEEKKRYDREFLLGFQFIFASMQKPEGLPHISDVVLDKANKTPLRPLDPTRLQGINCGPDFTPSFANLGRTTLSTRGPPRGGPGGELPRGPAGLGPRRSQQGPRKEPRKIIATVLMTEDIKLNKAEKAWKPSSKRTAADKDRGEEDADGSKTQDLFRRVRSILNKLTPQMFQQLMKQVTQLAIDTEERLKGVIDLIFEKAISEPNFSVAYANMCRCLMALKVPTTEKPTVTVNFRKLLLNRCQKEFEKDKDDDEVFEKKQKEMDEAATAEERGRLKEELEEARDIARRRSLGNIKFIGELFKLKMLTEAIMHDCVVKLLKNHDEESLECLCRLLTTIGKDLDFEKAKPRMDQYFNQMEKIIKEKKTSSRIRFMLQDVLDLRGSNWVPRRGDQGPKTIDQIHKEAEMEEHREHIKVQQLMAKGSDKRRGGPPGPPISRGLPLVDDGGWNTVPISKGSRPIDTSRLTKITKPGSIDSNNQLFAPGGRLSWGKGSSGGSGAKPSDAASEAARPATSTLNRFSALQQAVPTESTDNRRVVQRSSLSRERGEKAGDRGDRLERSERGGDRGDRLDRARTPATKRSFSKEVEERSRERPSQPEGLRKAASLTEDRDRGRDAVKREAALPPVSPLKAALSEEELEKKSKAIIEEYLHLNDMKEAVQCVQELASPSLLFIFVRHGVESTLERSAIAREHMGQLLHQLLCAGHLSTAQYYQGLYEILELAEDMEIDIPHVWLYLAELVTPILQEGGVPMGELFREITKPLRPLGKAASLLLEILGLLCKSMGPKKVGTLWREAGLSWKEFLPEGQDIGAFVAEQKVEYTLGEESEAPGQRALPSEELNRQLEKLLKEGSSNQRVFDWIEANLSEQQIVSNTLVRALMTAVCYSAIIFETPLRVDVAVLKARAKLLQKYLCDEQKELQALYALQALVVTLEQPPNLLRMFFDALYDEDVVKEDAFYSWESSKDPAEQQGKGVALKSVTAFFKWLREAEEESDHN

C#CCOc1ccc([C@@H]2C[C@@H](C(=O)Nc3ccc(OC(F)(F)F)cc3)CN(S(=O)(=O)C=C)C2)cc1 (relative stereo) [13-t]
enrich.exp.med ([1]; exp_ref Probe, analysis C6): 0.9115 | enrich.exp.med.lin [1]: 1.881 | enrich.exp.med.log2 [1]: 0.9115 | enrich.exp.med [2]: -6.8322 | enrich.exp.med ([3]; exp_ref Probe, analysis C6): 0.5798 | enrich.exp.med.lin [3]: 1.495 | enrich.exp.med.log2 [3]: 0.5798 | enrich.exp.med [4]: 0.06778 | enrich.exp.med [5]: -0.8366 | enrich.exp.med [6]: -2.444 | enrich.exp.med [7]: -0.1094 | enrich.exp.med [8]: -0.5962 | enrich.exp.med [9]: -0.1243 | enrich.exp.med [10]: 1.028 | enrich.exp.med [11]: 0.8215 | enrich.exp.med [12]: -0.08092 | enrich.exp.med ([13]; exp_ref Probe, analysis C6): 0.8127 | enrich.exp.med.lin [13]: 1.757 | enrich.exp.med.log2 [13]: 0.8127 | enrich.exp.med [14]: 1.117 | enrich.exp.med ([15]; Probe, protein MCCC1 Q96RQ3): -2.028 | enrich.exp.med.lin ([15]; protein MCCC1 (Q96RQ3)): 0.2451 | enrich.exp.med.log2 ([15]; protein MCCC1 (Q96RQ3)): -2.028
